Assay results from patent publication US5202315A, “Cephalosporin compounds” (Lucky, Ltd., priority 1989, dated 1993).
≈ marks a conversion by molar mass, not a printed value. Read-outs that look alike come from different tables or passages of the source.

Key:
Escherichia coli = assay: Antibacterial activity against clinically isolated strains, MIC; format: cell-based; conditions: 38 clinical isolates, broth microdilution test
[1] = test system: Staphylococcus aureus ATCC 10537; assay: Antibacterial activity, MIC; format: cell-based; conditions: ATCC10537, ATCC 10537, agar two-fold dilution, 37° C., 20 hours, read-out: MIC
In short: (§1)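 MIC by two-fold serial dilution in Mueller-Hinton agar; inoculum 2 μl at 10^7 CFU/ml; 37 °C, 20 h.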

[2] = test system: Klebsiella pneumoniae ATCC 10031; assay: Antibacterial activity, MIC; format: cell-based; conditions: ATCC10031, ATCC 10031, agar two-fold dilution, 37° C., 20 hours, read-out: MIC
In short: as §1

[3] = test system: Enterobacter cloacae ATCC 27508; assay: Antibacterial activity, MIC; format: cell-based; conditions: ATCC27508, ATCC 27508, agar two-fold dilution, 37° C., 20 hours, read-out: MIC
In short: as §1

[4] = test system: Escherichia coli ATCC 25922; assay: Antibacterial activity, MIC; format: cell-based; conditions: ATCC25922, agar two-fold dilution, 37° C., 20 hours
In short: as §1

[5] = test system: Pseudomonas aeruginosa ATCC 25619; assay: Antibacterial activity, MIC; format: cell-based; conditions: ATCC25619, ATCC 25619, agar two-fold dilution, 37° C., 20 hours, read-out: MIC
In short: as §1

[6] = test system: Citrobacter freundii ATCC 8090; assay: Antibacterial activity, MIC; format: cell-based; conditions: ATCC8090, ATCC 8090, agar two-fold dilution, 37° C., 20 hours, read-out: MIC
In short: as §1

[7] = test system: Bacillus cereus ATCC 11778; assay: Antibacterial activity, MIC; format: cell-based; conditions: ATCC11778, ATCC 11778, agar two-fold dilution, 37° C., 20 hours, read-out: MIC
In short: as §1

[8] = test system: Pseudomonas aeruginosa ATCC 27853; assay: Antibacterial activity, MIC; format: cell-based; conditions: ATCC27853, ATCC 27853, agar two-fold dilution, 37° C., 20 hours, read-out: MIC
In short: as §1

[9] = test system: Staphylococcus epidermidis ATCC 12228; assay: Antibacterial activity, MIC; format: cell-based; conditions: ATCC12228, ATCC 12228, agar two-fold dilution, 37° C., 20 hours, read-out: MIC
In short: as §1

[10] = test system: Morganella morganii ATCC 8076h; assay: Antibacterial activity, MIC; format: cell-based; conditions: ATCC8076H, agar two-fold dilution, 37° C., 20 hours
In short: as §1

[11] = test system: Escherichia coli ATCC 10536; assay: Antibacterial activity, MIC; format: cell-based; conditions: ATCC10536, agar two-fold dilution, 37° C., 20 hours
In short: as §1

[12] = test system: Salmonella typhimurium ATCC 14028; assay: Antibacterial activity, MIC; format: cell-based; conditions: Salmonella enterica; ATCC 14028; agar two-fold dilution, 37° C., 20 hours; read-out: MIC
In short: as §1

[13] = test system: Providencia rettgeri ATCC 9250; assay: Antibacterial activity, MIC; format: cell-based; conditions: ATCC9250, agar two-fold dilution, 37° C., 20 hours
In short: as §1

[14] = test system: Acinetobacter calcoaceticus ATCC 15473; assay: Antibacterial activity, MIC; format: cell-based; conditions: ATCC15473, ATCC 15473, agar two-fold dilution, 37° C., 20 hours, read-out: MIC
In short: as §1

[15] = test system: Proteus vulgaris ATCC 6059; assay: Antibacterial activity, MIC; format: cell-based; conditions: ATCC6059, ATCC 6059, agar two-fold dilution, 37° C., 20 hours, read-out: MIC
In short: as §1

[16] = test system: Serratia marcescens ATCC 27117; assay: Antibacterial activity, MIC; format: cell-based; conditions: ATCC27117, ATCC 27117, agar two-fold dilution, 37° C., 20 hours, read-out: MIC
In short: as §1

[17] = test system: Bacillus megaterium ATCC 9885; assay: Antibacterial activity, MIC; format: cell-based; conditions: Priestia megaterium, ATCC9885; ATCC 9885; agar two-fold dilution, 37° C., 20 hours; read-out: MIC
In short: as §1

[18] = test system: Staphylococcus aureus ATCC 6538p; assay: Antibacterial activity, MIC; format: cell-based; conditions: ATCC6538P, ATCC 6538p, agar two-fold dilution, 37° C., 20 hours, read-out: MIC
In short: as §1

[19] = test system: Shigella flexneri ATCC 11836; assay: Antibacterial activity, MIC; format: cell-based; conditions: ATCC11836, agar two-fold dilution, 37° C., 20 hours
In short: as §1

[20] = test system: Micrococcus luteus ATCC 9341; assay: Antibacterial activity, MIC; format: cell-based; conditions: ATCC9341, ATCC 9341, agar two-fold dilution, 37° C., 20 hours, read-out: MIC
In short: as §1

[21] = test system: Shigella sonnei ATCC 11060; assay: Antibacterial activity, MIC; format: cell-based; conditions: ATCC11060, ATCC 11060, agar two-fold dilution, 37° C., 20 hours, read-out: MIC
In short: as §1

[22] = test system: Pseudomonas aeruginosa ATCC 10145; assay: Antibacterial activity, MIC; format: cell-based; conditions: ATCC10145, ATCC 10145, agar two-fold dilution, 37° C., 20 hours, read-out: MIC
In short: as §1

[23] = test system: Enterobacter aerogenes ATCC 29751; assay: Antibacterial activity, MIC; format: cell-based; conditions: Klebsiella aerogenes, ATCC29751; ATCC 29751; agar two-fold dilution, 37° C., 20 hours; read-out: MIC
In short: as §1

[24] = In-vivo absorbency (plasma concentrations & pharmacokinetic parameters); parameters: species or system SD rat (male); conditions: plasma, SD male rat, iv 20 mg/kg, read-out: Plasma Conc.
Pseudomonas aeruginosa = assay: Antibacterial activity against clinically isolated strains, MIC; format: cell-based
[25] = test system: Staphylococcus aureus methicillin susceptible; assay: as above; format: cell-based; conditions: methicillin susceptible, 42 clinical isolates, broth microdilution test; for MIC90: read-out: MIC 90%
Klebsiella pneumoniae = assay: as above; format: cell-based; conditions: 10 clinical isolates, broth microdilution test; for MIC90: read-out: MIC 90%
[26] = 54 clinical isolates, broth microdilution test

| Compound | MIC50 (Escherichia coli) | MIC90 (Escherichia coli) | MIC [1] | MIC [2] | MIC [3] | MIC [4] | MIC [5] | MIC [6] | MIC [7] | MIC [8] | MIC [9] | MIC [10] | MIC [11] | MIC [12] | MIC [13] | MIC [14] | MIC [15] | MIC [16] | MIC [17] | MIC [18] | further results |
| --- | --- | --- | --- | --- | --- | --- | --- | --- | --- | --- | --- | --- | --- | --- | --- | --- | --- | --- | --- | --- | --- |
| CCO/N=C(\C(=O)NC1C(=O)N2C(C(=O)[O-])=C(CSc3nc(N)cc(N)[n+]3N)CSC12)c1csc(N)n1 (stereo not shown) [Compound I-16] | 0.13 µg/mL (≈ 0.229 µM) | 0.25 µg/mL (≈ 0.441 µM) | 0.25 µg/mL (≈ 0.441 µM) | ≤ 0.008 µg/mL | 0.016 µg/mL (≈ 0.0282 µM) | 0.063 µg/mL (≈ 0.111 µM) | 0.5 µg/mL (≈ 0.882 µM) | 0.063 µg/mL (≈ 0.111 µM) | 4 µg/mL (≈ 7.06 µM) | 2 µg/mL (≈ 3.53 µM) | 0.063 µg/mL (≈ 0.111 µM) | ≤ 0.008 µg/mL | 0.063 µg/mL (≈ 0.111 µM) | 0.25 µg/mL (≈ 0.441 µM) | ≤ 0.008 µg/mL | 4 µg/mL (≈ 7.06 µM) | 0.13 µg/mL (≈ 0.229 µM) | 0.13 µg/mL (≈ 0.229 µM) | 0.063 µg/mL (≈ 0.111 µM) | 0.25 µg/mL (≈ 0.441 µM) | MIC [19]: 0.016 µg/mL (≈ 0.0282 µM); MIC [20]: 0.016 µg/mL (≈ 0.0282 µM); MIC [21]: 0.063 µg/mL (≈ 0.111 µM); MIC [22]: 4 µg/mL (≈ 7.06 µM); MIC [23]: 0.25 µg/mL (≈ 0.441 µM); concentration at 1 min [24]: 149 µg/mL; concentration at 2.5 min [24]: 106 µg/mL; concentration at 5 min [24]: 79 µg/mL; concentration at 10 min [24]: 52 µg/mL; concentration at 20 min [24]: 32 µg/mL; concentration at 40 min [24]: 13 µg/mL; MIC90 (Pseudomonas aeruginosa): 16 µg/mL (≈ 28.2 µM); MIC50 (Pseudomonas aeruginosa; [26]): 4 µg/mL (≈ 7.06 µM); MIC50 [25]: 0.25 µg/mL (≈ 0.441 µM); MIC90 [25]: 0.25 µg/mL (≈ 0.441 µM); MIC50 (Klebsiella pneumoniae): 0.13 µg/mL (≈ 0.229 µM); MIC90 (Klebsiella pneumoniae): 0.13 µg/mL (≈ 0.229 µM) |
| Cc1c(N)nc(SCC2=C(C(=O)[O-])N3C(=O)C(NC(=O)/C(=N\OC(C)(C)C(=O)O)c4csc(N)n4)C3SC2)[n+](C)c1N (stereo not shown) [Compound I-30] | 0.13 µg/mL (≈ 0.204 µM) | 0.25 µg/mL (≈ 0.392 µM) | 2 µg/mL (≈ 3.14 µM) | 0.063 µg/mL (≈ 0.0988 µM) | 0.063 µg/mL (≈ 0.0988 µM) | 0.063 µg/mL (≈ 0.0988 µM) | 2 µg/mL (≈ 3.14 µM) | 0.13 µg/mL (≈ 0.204 µM) | 128 µg/mL (≈ 201 µM) | 2 µg/mL (≈ 3.14 µM) | 2 µg/mL (≈ 3.14 µM) | ≤ 0.008 µg/mL | 0.063 µg/mL (≈ 0.0988 µM) | 0.25 µg/mL (≈ 0.392 µM) | ≤ 0.008 µg/mL | 4 µg/mL (≈ 6.27 µM) | 0.063 µg/mL (≈ 0.0988 µM) | 0.13 µg/mL (≈ 0.204 µM) | 0.5 µg/mL (≈ 0.784 µM) | 4 µg/mL (≈ 6.27 µM) | MIC [19]: 0.031 µg/mL (≈ 0.0486 µM); MIC [20]: 0.5 µg/mL (≈ 0.784 µM); MIC [21]: 0.063 µg/mL (≈ 0.0988 µM); MIC [22]: 2 µg/mL (≈ 3.14 µM); MIC [23]: 2 µg/mL (≈ 3.14 µM); concentration at 1 min [24]: 148 µg/mL; concentration at 2.5 min [24]: 100 µg/mL; concentration at 5 min [24]: 80 µg/mL; concentration at 10 min [24]: 54 µg/mL; concentration at 20 min [24]: 29 µg/mL; concentration at 40 min [24]: 17 µg/mL; concentration at 2.5 h ([24]; 150 min): 1.3 µg/mL; MIC50 (Pseudomonas aeruginosa; [26]): 2 µg/mL (≈ 3.14 µM); MIC90 (Pseudomonas aeruginosa; 54 clinical isolates, broth microdilution test, read-out: MIC 90%): 4 µg/mL (≈ 6.27 µM); MIC50 [25]: 2 µg/mL (≈ 3.14 µM); MIC90 [25]: 4 µg/mL (≈ 6.27 µM); MIC50 (Klebsiella pneumoniae): 0.13 µg/mL (≈ 0.204 µM); MIC90 (Klebsiella pneumoniae): 0.25 µg/mL (≈ 0.392 µM) |
| CCC[n+]1c(N)cc(N)nc1SCC1=C(C(=O)[O-])N2C(=O)C(NC(=O)/C(=N\OC(C)C(=O)O)c3csc(N)n3)C2SC1 (stereo not shown) [Compound I-45] | 0.13 µg/mL (≈ 0.204 µM) | 0.13 µg/mL (≈ 0.204 µM) | 2 µg/mL (≈ 3.14 µM) | 0.063 µg/mL (≈ 0.0988 µM) | 0.016 µg/mL (≈ 0.0251 µM) | 0.063 µg/mL (≈ 0.0988 µM) | 1 µg/mL (≈ 1.57 µM) | 0.063 µg/mL (≈ 0.0988 µM) | 64 µg/mL (≈ 100 µM) | 2 µg/mL (≈ 3.14 µM) | 1 µg/mL (≈ 1.57 µM) | ≤ 0.008 µg/mL | 0.063 µg/mL (≈ 0.0988 µM) | 0.25 µg/mL (≈ 0.392 µM) | ≤ 0.008 µg/mL | 8 µg/mL (≈ 12.5 µM) | 0.063 µg/mL (≈ 0.0988 µM) | 0.13 µg/mL (≈ 0.204 µM) | 0.5 µg/mL (≈ 0.784 µM) | 2 µg/mL (≈ 3.14 µM) | MIC [19]: 0.031 µg/mL (≈ 0.0486 µM); MIC [20]: 0.5 µg/mL (≈ 0.784 µM); MIC [21]: 0.063 µg/mL (≈ 0.0988 µM); MIC [22]: 4 µg/mL (≈ 6.27 µM); MIC [23]: 1 µg/mL (≈ 1.57 µM); concentration at 1 min [24]: 147 µg/mL; concentration at 2.5 min [24]: 84 µg/mL; concentration at 5 min [24]: 67 µg/mL; concentration at 10 min [24]: 52 µg/mL; concentration at 20 min [24]: 29 µg/mL; concentration at 40 min [24]: 16 µg/mL; MIC90 (Pseudomonas aeruginosa): 16 µg/mL (≈ 25.1 µM); MIC50 (Pseudomonas aeruginosa; [26]): 4 µg/mL (≈ 6.27 µM); MIC50 [25]: 2 µg/mL (≈ 3.14 µM); MIC90 [25]: 2 µg/mL (≈ 3.14 µM); MIC50 (Klebsiella pneumoniae): 0.13 µg/mL (≈ 0.204 µM); MIC90 (Klebsiella pneumoniae): 0.13 µg/mL (≈ 0.204 µM) |
